Measured values published in the supplement of paper PMC10307832.

Key:
Experiment in all cases: relative viability (nuclei count vs DMSO), 5 days (fraction); higher = more cells survive
[1] = compound: CN[C@@H]1C[C@H]2O[C@@](C)([C@@H]1OC)n1c3ccccc3c3c4c(c5c6ccccc6n2c5c31)C(=O)NC4 [Staurosporine] + CC(=O)c1c(C)c2cnc(Nc3ccc(N4CCNCC4)cn3)nc2n(C2CCCC2)c1=O [Palbociclib] (partner 0.5 µM)
Procedure, shortened: (§1)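 Relative viability equals treated-well nuclei counts divided by vehicle-well nuclei counts. Counts came from 4× images of lung cancer cell lines grown in 1536-well plates for 5 days after pin-tool dosing on the day after seeding. Dosing used one drug alone or a fixed anchor-drug dose plus five library-drug doses (not always all listed) in √10 steps, and values are medians of duplicate plates.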

[2] = compound: CN[C@@H]1C[C@H]2O[C@@](C)([C@@H]1OC)n1c3ccccc3c3c4c(c5c6ccccc6n2c5c31)C(=O)NC4 [Staurosporine] + O=C(CCCCCCC(=O)Nc1ccccc1)NO [Vorinostat] (partner 1 µM)
Procedure, shortened: as §1

[3] = compound: O=c1[nH]cc(F)c(=O)[nH]1 [5-Fluorouracil] + C[C@]1(O)C[C@@H](c2nc(-c3ccc4ccc(-c5ccccc5)nc4c3)c3c(N)nccn32)C1 [Linsitinib] (partner 1 µM)
Procedure, shortened: as §1

[4] = compound: CN[C@@H]1C[C@H]2O[C@@](C)([C@@H]1OC)n1c3ccccc3c3c4c(c5c6ccccc6n2c5c31)C(=O)NC4 [Staurosporine] + C[C@]1(O)C[C@@H](c2nc(-c3ccc4ccc(-c5ccccc5)nc4c3)c3c(N)nccn32)C1 [Linsitinib] (partner 1 µM)
Procedure, shortened: as §1

| Cell Line | relative viability ([1]; first compound 0.005 µM) | relative viability ([1]; first compound 0.05 µM) | relative viability ([1]; first compound 0.1581 µM) | relative viability ([1]; first compound 0.5 µM) | relative viability ([2]; first compound 0.005 µM) | relative viability ([2]; first compound 0.05 µM) | relative viability ([2]; first compound 0.1581 µM) | relative viability ([2]; first compound 0.5 µM) | relative viability ([3]; first compound 0.02 µM) | relative viability ([3]; first compound 0.2 µM) | relative viability ([3]; first compound 0.6325 µM) | relative viability ([3]; first compound 2 µM) | relative viability ([4]; first compound 0.005 µM) | relative viability ([4]; first compound 0.05 µM) | relative viability ([4]; first compound 0.1581 µM) | relative viability ([4]; first compound 0.5 µM) | relative viability ([1]; first compound 0.01581 µM) | relative viability ([2]; first compound 0.01581 µM) | relative viability ([4]; first compound 0.01581 µM) |
| --- | --- | --- | --- | --- | --- | --- | --- | --- | --- | --- | --- | --- | --- | --- | --- | --- | --- | --- | --- |
| NCI-H2170 | 0.43 | 0.314 | 0.218 | 0.176 | 0.875 | 0.488 | 0.0663 | 0.0848 | – | – | – | – | – | – | – | – | – | – | – |
| HCC-366 | 0.297 | 0.113 | 0.0357 | 0.0204 | 0.331 | 0.0353 | 0.0261 | 0.0187 | 0.673 | 0.82 | 0.254 | 0.0796 | 0.623 | 0.0843 | 0.0298 | 0.013 | – | – | – |
| NCI-H2405 | 0.196 | 0.122 | – | 0.0886 | 0.199 | 0.131 | 0.0894 | 0.0973 | 0.883 | 0.967 | 0.881 | 0.672 | 0.214 | 0.113 | 0.0901 | 0.0874 | 0.172 | 0.147 | 0.127 |
| COR-L 105 | 0.365 | 0.313 | 0.282 | 0.246 | 0.69 | 0.228 | 0.333 | 0.224 | 0.976 | 0.862 | 0.937 | 0.575 | 0.561 | 0.246 | 0.261 | 0.213 | 0.334 | 0.289 | 0.353 |
| 201T | 0.362 | 0.329 | 0.274 | 0.285 | 0.935 | 0.699 | 0.354 | 0.245 | 0.991 | 0.955 | 0.452 | 0.342 | 1.02 | 0.814 | 0.688 | 0.575 | – | – | 1 |
| NCI-H2228 | 0.209 | 0.3 | 0.102 | 0.0805 | 0.449 | 0.126 | 0.0779 | 0.0804 | 0.443 | 0.627 | 0.48 | 0.36 | 0.608 | 0.141 | 0.183 | 0.113 | 0.215 | 0.188 | 0.483 |
| LC-2-ad | 0.537 | 0.279 | 0.168 | 0.109 | 0.635 | 0.217 | 0.13 | 0.0772 | 0.868 | 0.798 | 0.463 | 0.299 | 0.817 | 0.192 | 0.0865 | 0.0668 | 0.328 | 0.158 | 0.434 |
| NCI-H2087 | 0.208 | 0.0957 | 0.0793 | 0.0947 | 0.628 | 0.354 | 0.0753 | 0.0552 | 0.91 | 0.865 | 0.657 | – | 0.71 | 0.356 | 0.296 | 0.153 | 0.2 | 0.407 | 0.712 |
| NCI-H358 | 0.107 | 0.102 | 0.0861 | 0.0814 | – | 0.0628 | 0.0625 | 0.0709 | 0.704 | 0.883 | 0.867 | 0.483 | 0.573 | 0.189 | 0.152 | 0.122 | 0.081 | 0.165 | 0.281 |
